# Values of other authors, collected in patent publication US20240148709A1, “METHODS OF TREATING EYE PAIN AND EYE DISORDERS” (Aisa Pharma, Inc., priority 2022, published 2024).
# Conditions: oral dosing; cited from earlier work
structure (smiles),measurement,value
CCOC(=O)C1=C(COCCN)NC(C)=C(C(=O)OC)C1c1ccccc1Cl (stereo not shown) [amlodipine],time to achieve maximal plasma concentration (Tmax),10 h
